Data on 47 sequences can be found in the OligoGym collection.

“And” between values parts separate entries of the source, which are not always exact repeats. Identical values can stand only once. After the bases stand the sugars from the 5' end (letter, count) and the backbone: PS all phosphorothioate, else s phosphorothioate and o phosphodiester by linkage. Methylation of C is not given here. e = 2'-O-(2-methoxyethyl) (MOE); k = constrained ethyl (cEt); d = 2'-deoxy (DNA)

This data set concerns the target IRF4. The settings on record: ASO.

In the case of “ACGTGTGCTTGCCAAG (sugars kkddddddddddkeke, PS)”, the target mRNA inhibition (MM.1R, 1 µM) was 6% and 26%. For CTATGCTAGAGAACAT (sugars k3 d10 k3, PS), the target mRNA inhibition (SK-MEL-28, 4 µM) came out at 23%. Same read-out and setting: the same measure for GGGAACCTGAAAAGAG (sugars k3 d10 k3, PS): 21%; for ATCAGATGATGTCTAG (sugars k3 d10 k3, PS): -3%. On to AGAACATTACGAGAGG (sugars k3 d10 k3, PS), for which the target mRNA inhibition reads like this: (MM.1R, 0.0625 µM) 2% and 12%; (MM.1R, 0.25 µM) 16% and 20%; (MM.1R, 1 µM) 41% and 51%; (MM.1R, 4 µM) 65% and 66%.

Take ACCATTACTTAGACAT (sugars k3 d10 k3, PS): the target mRNA inhibition (SK-MEL-28, 4 µM) was found to be 65%. As to “TACTGTTACCGATGCT (sugars k2 d9 e3 k2, PS)”, for the setting “MM.1R, 1 µM”, the target mRNA inhibition is 29% and 8%.

Regarding CATGAGGGTGACACAC (sugars k3 d10 k3, PS), for the setting “SK-MEL-28, 4 µM”, the target mRNA inhibition was 47%. On the same count and under the same terms, the same measure for ACAGAGCCAACTTATA (sugars k3 d10 k3, PS): 6%.

In the case of “CAGTGACTTGCATCCA (sugars kkdddddddddekeke, PS)”, the target mRNA inhibition (MM.1R, 1 µM) was determined as 34%. In the case of TACTGCTGTACTTTCT (sugars k3 d10 k3, PS), the target mRNA inhibition (SK-MEL-28, 4 µM) turned out to be 43%.

Consider GATCACTCAGAATTTT (sugars k3 d10 k3, PS), for which the target mRNA inhibition (SK-MEL-28, 4 µM) amounted to 50%.

In the case of CAAGCATAAAAGGTTC (sugars k3 d10 k3, PS), where the note is “SK-MEL-28, 4 µM”, the target mRNA inhibition was 29%.

As for “GCAGTGATGTCAGGTT (sugars kkkddddddddkekek, PS)”, the target mRNA inhibition (MM.1R, 1 µM) amounted to 36%.

Consider GATGGGACCGCCCTGG (sugars k3 d10 k3, PS), for which the target mRNA inhibition (MM.1R, 1 µM) was -13%. In the case of CTTGCAGCTCTGACAA (sugars k3 d10 k3, PS), the target mRNA inhibition (SK-MEL-28, 4 µM) turned out to be 9%. Regarding “ACTTTTAGAGAGGAGA (sugars k3 d9 k3 e1, PS)”, under “MM.1R, 1 µM”, the target mRNA inhibition worked out at 36%. Turning to AATTTCCATTGGAGGA (sugars k3 d10 k3, PS), where the note is “SK-MEL-28, 4 µM”, the target mRNA inhibition stood at 33%. On to AAGCATCCTTTCCTAC (sugars k3 d10 k3, PS), for which the target mRNA inhibition (SK-MEL-28, 4 µM) stood at 35%. Regarding ACTTTTAGAGAGGAGA (sugars k3 d10 k3, PS), the target mRNA inhibition (SK-MEL-28, 4 µM) is 64%.

On to TAAACTTGGCTGTGGG (sugars k3 d10 k3, PS), for which the target mRNA inhibition (SK-MEL-28, 4 µM) came out at 27%. Still for that read-out and setting: the same measure for CTTTGATGAGCAGATC (sugars k3 d10 k3, PS): 12%; for TGGCAGTCTACAGAAC (sugars k3 d10 k3, PS): -22%; for TGGAGGTCTTTGGGAT (sugars k3 d10 k3, PS): 58%. Regarding TGGCACAGTCTTTTCG (sugars k3 d10 k3, PS), the target mRNA inhibition (SK-MEL-28, 4 µM) came to 28%.

Consider GTCCGGTTAGCTCATC (sugars k3 d10 k3, PS), for which the target mRNA inhibition (SK-MEL-28, 4 µM) was 45%. Regarding CGACAACTTTCCTGAA (sugars k3 d10 k3, PS), the target mRNA inhibition (SK-MEL-28, 4 µM) was 21%. The same measure, in the same setting: to CGCCACCTGATGCCTC (sugars k3 d10 k3, PS) belongs 30%; to ACCTGGCAACCATTTT (sugars k4 d8 k4, PS), 19%.

Take TCCGAAAAGACTGGAG (sugars k3 d10 k3, PS): the target mRNA inhibition (MM.1R, 1 µM) was -7%.

Regarding GATGACTCCATGAGGT (sugars k3 d10 k3, PS), the target mRNA inhibition (SK-MEL-28, 4 µM) was determined as 67%. Take TCTGTATAGTTCTCAA (sugars k3 d10 k3, PS): the target mRNA inhibition is -2% and 0% (MM.1R, 0.0625 µM); 16% and 26% (MM.1R, 0.25 µM); 42% and 40% (MM.1R, 1 µM); 69% and 71% (MM.1R, 4 µM).

Regarding ATACATCACTGCAGTT (sugars k3 d10 k3, PS), where the note is “SK-MEL-28, 4 µM”, the target mRNA inhibition amounted to 36%. For the sequence TTGTTAACAATGTATC (sugars k3 d10 k3, PS), the target mRNA inhibition (SK-MEL-28, 4 µM) turned out to be 47%. Turning to AATTGGCACGAGGAAG (sugars k3 d10 k3, PS), the target mRNA inhibition (SK-MEL-28, 4 µM) is 28%. Same read-out and setting: to GCAGTCAATTGGACGC (sugars k3 d10 k3, PS) belongs 77%.

For “AAGCTTGATAAAGGCT (sugars kkdddddddddkekek, PS)”, the target mRNA inhibition (MM.1R, 1 µM) was -19%. As for GCTTACAAAAACTTGG (sugars k3 d10 k3, PS), the target mRNA inhibition (SK-MEL-28, 4 µM) is 26%. For GTTCAAGTATTAAGAT (sugars k3 d10 k3, PS), the target mRNA inhibition (SK-MEL-28, 4 µM) was 29%. For the sequence ATATACATTGAGGCAT (sugars k3 d10 k3, PS), for the setting “MM.1R, 1 µM”, the target mRNA inhibition was -31%. Still for that read-out and setting: the same measure for TAGATTCTCCCTGCAC (sugars k3 d10 k3, PS): 18%. As for GGCCTTGCCAGTGGTG (sugars k4 d8 k4, PS), the target mRNA inhibition (SK-MEL-28, 4 µM) came out at 6%. For “CTTGATAAAGGCTGAA (sugars kkdddddddddkdkdk, PS)”, the target mRNA inhibition (MM.1R, 1 µM) came to 1%. Same read-out and setting: to TGAGATATTCCTCTCA (sugars k3 d10 k3, PS) belongs 18%. Regarding GCTGAGATAAGAAGCA (sugars k3 d10 k3, PS), the target mRNA inhibition (SK-MEL-28, 4 µM) was 32%. As for AAGCGCACCGCAGGCG (sugars k3 d10 k3, PS), the target mRNA inhibition (SK-MEL-28, 4 µM) turned out to be 4%.

As to GACCATCTGATCCGGA (sugars k3 d10 k3, PS), the target mRNA inhibition (MM.1R, 1 µM) came to 2%.
